Data as given in US20230219946A1, “PYRIMIDIN-4(3H)-ONE HETEROCYCLIC COMPOUND, PREPARATION METHOD THEREOF, AND PHARMACEUTICAL USE THEREOF” (Beijing Innocare Pharma Tech Co., Ltd., priority 2020, published 2023).
Where a name gives a salt, the structure may show the parent alone.

Legend:
[1] = biological target: T1, Recombinant human SHP2 full-length protein (Homo sapiens, UniProt Q06124); experiment: SHP2 activity inhibition measurement (fluorescence detection, surrogate substrate DiFMUP); type: biochemical; conditions: recombinant human SHP2 full-length protein activated with diphosphopeptide
T1 construct: Recombinant human SHP2 full-length protein
T1 sequence (Q06124 1-593): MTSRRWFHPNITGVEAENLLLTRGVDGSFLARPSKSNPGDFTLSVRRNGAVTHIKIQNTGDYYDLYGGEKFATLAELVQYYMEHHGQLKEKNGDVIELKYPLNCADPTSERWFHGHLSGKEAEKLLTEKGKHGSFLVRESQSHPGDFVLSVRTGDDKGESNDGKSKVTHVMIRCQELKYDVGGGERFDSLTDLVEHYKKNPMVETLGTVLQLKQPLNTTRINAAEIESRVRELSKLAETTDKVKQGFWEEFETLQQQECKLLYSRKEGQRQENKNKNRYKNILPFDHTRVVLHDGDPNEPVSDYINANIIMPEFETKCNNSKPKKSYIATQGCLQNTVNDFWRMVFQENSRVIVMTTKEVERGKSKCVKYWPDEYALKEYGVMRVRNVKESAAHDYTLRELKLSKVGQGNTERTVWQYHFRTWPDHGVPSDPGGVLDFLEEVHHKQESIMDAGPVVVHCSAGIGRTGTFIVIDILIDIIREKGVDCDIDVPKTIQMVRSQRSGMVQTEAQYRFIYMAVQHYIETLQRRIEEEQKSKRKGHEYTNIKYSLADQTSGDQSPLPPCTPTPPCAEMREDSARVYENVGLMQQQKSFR
Description: SHP2 activity inhibition measurement
The effect of the compound of the present invention on SHP2 activity is evaluated by rapid fluorescence detection method using the surrogate substrate DiFMUP.
(§1) The experimental method is outlined as follows:
Recombinant human SHP2 full-length protein was expressed and purified by the protein purification and identification platform of Tsinghua University; diphosphopeptide (H2N-LN(pY)IDLDLV-(dPEG8)LST(pY)ASINFQK-amide) was synthesized by Nanjing GenScript Biotechnology Co., Ltd.; surrogate substrate DiFMUP was purchased from Thermo Fisher Scientific (Cat. No. D6567); reaction buffer contained the following components: 60 mM HEPES (pH 7.2), 75 mM NaCl, 75 mM KCl, 1 mM EDTA, 0.05% TWEEN 20, and 5 mM DTT.
The compound was dissolved in DMSO (Sigma, Cat. No. D5879) and diluted to 100 μM. The resulting solution was serially diluted 4-fold with DMSO to a minimum concentration of 6.1 nM, and each concentration point was diluted 25-fold with the reaction buffer.
10 μL of compound solution and 10 μL of 0.25 nM SHP2 protein solution were added to a 384-well microplate (Corning, Cat. No. 3575), mixed well, and incubated at room temperature for 30 min. 10 μL of 0.5 μM diphosphopeptide (dissolved in the reaction buffer) was added, mixed well, and incubated at room temperature for 30 to 60 min. Subsequently, 10 μL of 60 μM DiFMUP solution (dissolved in the reaction buffer) was added, mixed well, and let stand at room temperature. After 30 min, fluorescence signals were measured at 340 nm (excitation wavelength)/450 nm (emission wavelength) using a microplate reader (EnSpire, Perkin Elmer). The fluorescence intensity value was positively correlated with the degree of dephosphorylation of the substrate, thereby reflecting the catalytic activity of SHP2. […] An inhibition curve of the compound was plotted by XLfit software and the inhibitory IC50 was calculated.

[2] = tested on: human non-small cell lung cancer cell line NCI-H358; experiment: NCI-H358 cell proliferation inhibition (luminescent cell viability assay, CTG); type: cell-based; conditions: 120 h, NCI-H358 cells, 5 days, CellTiter-Glo
Description: Determination of NCI-H358 cell proliferation inhibition
The effect of the compound of the present invention on proliferation of human non-small cell lung cancer cell line NCI-H358 is evaluated by luminescent cell viability assay.
as §1
The compound was dissolved in DMSO (Sigma, Cat. No. D5879) and diluted to 5 mM. The resulting solution was serially diluted 4-fold with DMSO to a minimum concentration of […], and each concentration point was diluted 50-fold with RPMI 1640 Medium (Thermo Fisher Scientific, Cat. No. 11995073). When the IC50 value of the compound was low, the initial concentration of the compound was further reduced.
NCI-H358 cells (ATCC, Cat. No. CRL-5807) were cultured in RPMI 1640 Complete Medium [RPMI 1640 Medium was supplemented with 10% FBS (GBICO, Cat. No. 10099-141) and 100 units/mL Penicillin-Streptomycin (Thermo Fisher Scientific, Cat. No. 15140122)]. The cells (15,000 cells/mL) were seeded in 90 μL of Complete Medium on a 96-well plate. After culturing overnight, 10 μL of compound solution was added to each well and cultured at 37° C. in a 5% CO2 incubator for 5 days. According to the instruction from the CellTilter-Glo (CTG) kit (Promega, Cat. No. G7572), the cell culture plate was removed from incubator and equilibrated to room temperature. The cells were lysed fully with 50 μL of CTG reagent and placed at room temperature for 10 min. A luminescence signal was read by the microplate reader (EnVision, Perkin Elmer). […] An inhibition curve of the compound was plotted by XLfit software and the inhibitory IC50 was calculated.

IC50 [1] [nM] | IC50 [2] [nM] | Compound
20 | 434 | Cn1c(N2CCC3(CCC[C@H]3N)CC2)ncc(Sc2cccc3[nH]ncc23)c1=O [Compound 3, (R)-5-((1H-indazole-4-yl)thio)-2-(1-amino-8-azaspiro[4.5]decan-8-yl)-3-methylpyrimidin-4(3H)-one hydrochloride]
5.5 | 335 | C[C@@H]1OCC2(CCN(c3ncc(Sc4ccnc5[nH]ccc45)c(=O)n3C)CC2)[C@@H]1N [Compound 18, 5-((1H-pyrrolo[2,3-b]pyridin-4-yl)thio)-2-((3S,4S)-4-amino-3-methyl-2-oxa-8-azaspiro[4.5]decan-8-yl)-3-methylpyrimidin-4(3H)-one formate]
14 | 540 | C[C@@H]1OCC2(CCN(c3ncc(Sc4ccnc5c4ccn5C)c(=O)n3C)CC2)[C@@H]1N [Compound 17, 2-((3S,4S)-4-amino-3-methyl-2-oxa-8-azaspiro[4.5]decan-8-yl)-3-methyl-5-((1-methyl-1H-pyrrolo[2,3-b]pyridin-4-yl)thio)pyrimidin-4(3H)-one formate]
11 | 222 | [2H]C([2H])([2H])n1c(N2CCC3(CC2)CO[C@@H](C)[C@H]3N)ncc(Sc2ccc3nn(C)cc3c2Cl)c1=O [Compound 19, 2-((3S,4S)-4-amino-3-methyl-2-oxa-8-azaspiro[4.5]decan-8-yl)-5-((4-chloro-2-methyl-2H-indazole-5-yl)thio)-3-(methyl-d3)pyrimidin-4(3H)-one]
8.7 | – | Cn1c(N2CCC3(CCC[C@H]3N)CC2)nc(N)c(Sc2cccc3[nH]ncc23)c1=O [Compound 13, (R)-5-((1H-indazole-4-yl)thio)-6-amino-2-(1-amino-8-azaspiro[4.5]decan-8-yl)-3-m ethylpyrimidin-4(3H)-one formate]
56 | – | Cn1cc2c(Cl)c(Sc3cnc(N4CCC(C)(CN)CC4)n(C)c3=O)ccc2n1 [Compound 16, 2-(4-(Aminomethyl)-4-methylpiperidin-1-yl)-5-((4-chloro-2-methyl-2H-indazole-5-yl)thio)-3-methylpyrimidin-4(3H)-one formate]
20 | 383 | Cn1c(N2CCC3(CCC[C@H]3N)CC2)ncc(Sc2ccnc3c2ccn3C)c1=O [Compound 2, (R)-2-(1-amino-8-azaspiro[4.5]decan-8-yl)-3-methyl-5-((1-methyl-1H-pyrrolo[2,3-b]pyridin-4-yl)thio)pyrimidin-4(3H)-one formate]
877 | – | Cn1c(N2CCC3(CCC[C@H]3N)CC2)ncc(Sc2ccc3[nH]ncc3c2)c1=O [Compound 6, (R)-5-((1H-indazole-5-yl)thio)-2-(1-amino-8-azaspiro[4.5]decan-8-yl)-3-methylpyrimidin-4(3H)-one hydrochloride]
126 | 2360 | Cn1c(N2CCC3(CCC[C@H]3N)CC2)ncc(Sc2cccn3nccc23)c1=O [Compound 4, (R)-2-(1-amino-8-azaspiro[4.5]decan-8-yl)-3-methyl-5-(pyrazolo[1,5-a]pyridin-4-ylthio)pyrimidin-4(3H)-one formate]
36 | 1760 | Cn1cc2c(Cl)c(Sc3cnc(N4CCC5(CC4)COC[C@H]5N)n(C)c3=O)ccc2n1 [Compound 10, (S)-2-(4-amino-2-oxa-8-azaspiro[4.5]decan-8-yl)-5-((4-chloro-2-methyl-2H-indazole-5-yl)thio)-3-methylpyrimidin-4(3H)-one]
23 | 310 | Cn1c(N2CCC3(CCC[C@H]3N)CC2)ncc(Sc2ccnc3[nH]ccc23)c1=O [Compound 1, (R)-5-((1H-pyrrolo[2,3-b]pyridin-4-yl)thio)-2-(1-amino-8-azaspiro[4.5]decan-8-yl)-3-methylpyrimidin-4(3H)-one hydrochloride]
801 | – | Cn1c(N2CCC3(CCC[C@H]3N)CC2)ncc(Sc2ccn3nccc3c2)c1=O [Compound 5, (R)-2-(1-amino-8-azaspiro[4.5]decan-8-yl)-3-methyl-5-(pyrazolo[1,5-a]pyridin-5-ylthio)pyrimidin-4(3H)-one hydrochloride]

Compound | IC50 [1] [nM] | IC50 [2] [nM]
Cn1c(N2CCC3(CCC[C@H]3N)CC2)ncc(Sc2ccn3nccc3c2Cl)c1=O [Compound 8, (R)-2-(1-amino-8-azaspiro[4.5]decan-8-yl)-5-((4-chloropyrazolo[1,5-a]pyridin-5-yl)thio)-3-methylpyrimidin-4(3H)-one formate] | 8.6 | 309
C[C@@H]1OCC2(CCN(c3nc(N)c(Sc4ccn5nccc5c4Cl)c(=O)n3C)CC2)[C@@H]1N [Compound 15, 6-Amino-2-((3S,4S)-4-amino-3-methyl-2-oxa-8-azaspiro[4.5]decan-8-yl)-5-((4-chloropyrazolo[1,5-a]pyridine-5-yl)thio)-3-methylpyrimidin-4(3H)-one formate] | 2.7 | 342
Cn1nc2ccc(Sc3cnc(N4CCC5(CCC[C@H]5N)CC4)n(C)c3=O)c(Cl)c2c1C#N [Compound 9, (R)-5-((2-(1-amino-8-azaspiro[4.5]decan-8-yl)-1-methyl-6-oxo-1,6-dihydropyrimidin-5-yl)thio)-4-chloro-2-methyl-2H-indazole-3-carbonitrile formate] | 8.8 | 1340
C[C@@H]1OCC2(CCN(c3ncc(Sc4ccn5nccc5c4Cl)c(=O)n3C)CC2)[C@@H]1N [Compound 12, 2-((3S,4S)-4-amino-3-methyl-2-oxa-8-azaspiro[4.5]decan-8-yl)-5-((4-chloropyrazolo[1,5-a]pyridin-5-yl)thio)-3-methylpyrimidin-4(3H)-one formate] | 3.1 | 264
C[C@@H]1OCC2(CCN(c3ncc(Sc4ccc5nn(C)cc5c4Cl)c(=O)n3C)CC2)[C@@H]1N [Compound 11, 2-((3S,4S)-4-amino-3-methyl-2-oxa-8-azaspiro[4.5]decan-8-yl)-5-((4-chloro-2-methyl-2H-indazole-5-yl)thio)-3-methylpyrimidin-4(3H)-one formate] | 4 | 165
C[C@@H]1OCC2(CCN(c3nc(N)c(Sc4ccc5nn(C)cc5c4Cl)c(=O)n3C)CC2)[C@@H]1N [Compound 14, 6-Amino-2-((3S,4S)-4-amino-3-methyl-2-oxa-8-azaspiro[4.5]decan-8-yl)-5-((4-chloro-2-methyl-2H-indazole-5-yl)thio)-3-methylpyrimidin-4(3H)-one formate] | 2.5 | 108
